One test relates to p53^−/− MEFs. It is filed as cell-based, mouse.
The test system of a further test is bax^−/−bak^−/− MEFs. It is filed as cell-based, mouse.
The test system of test [1] is Mouse bone marrow derived macrophages. It is filed as cell-based.
Test [2] is classed as cell-based, mouse.
The test system of another test is ATP. Description: Determination of cellular ATP. In kind it is cell-based, mouse.

Data on four compounds can be found in patent publication US8304182B2, “Methods of identifying anti-cancer agents and uses thereof” (The Trustees of the University of Pennsylvania, priority 2003, dated 2012).

Take `COc1cc([C@@H]2c3cc4c(cc3[C@@H](O[C@@H]3O[C@@H]5CO[C@@H](C)O[C@H]5[C@H](O)[C@H]3O)[C@H]3COC(=O)[C@H]23)OCO4)cc(OC)c1O` [etoposide]: the “cell death (cell survival by PI exclusion)” value with p53^−/− MEFs and in the test with bax^−/−bak^−/− MEFs was “resistant” in each case.
Turning to `CN[C@@H]1C[C@H]2O[C@@](C)([C@@H]1OC)n1c3ccccc3c3c4c(c5c6ccccc6n2c5c31)C(=O)NC4` [staurosporine], the cell death entry in the test on parp-1^−/− MEFs (parp-1^−/− cells, staurosporine, FIG. 3F) is reported as “killed”; in the test on bax^−/−bak^−/− MEFs it was “no cell death was observed”. Moreover, the “cell death (cell survival by PI exclusion)” value in the test on p53^−/− MEFs is listed as “induced cell death”. In addition, the “TNFα production by macrophages” value in test [1] is “failed to do so”.
Turning to `O=C1NCCc2c(OCCCCN3CCCCC3)cccc21` [DPQ], the “prevention of MNNG-induced NAD depletion” value in test [2] is reported as “could be prevented”. Further, in the test on ATP, the “prevention of MNNG-induced ATP depletion” value is “could be prevented”.
Consider `O=c1[nH]ccc2c(O)cccc12` [DHIQ], for which, in the test on parp-1^−/− MEFs, the “effect on MNNG-induced cell death rate” value is “did not affect the cell death rate”. Moreover, in the test with bax^−/−bak^−/− MEFs, the “block of MNNG-induced cell death” value was “fully”.
